What follows are compounds tested against T1, recombinant full length LRRK2 over-expressed in SH-SY5Y cells (Homo sapiens, UniProt Q5S007) (assay: Recombinant cellular LRRK2 AlphaScreen assay (LRRK2 Ser935 phosphorylation)). Conditions: SH-SY5Y cells with BacMam LRRK2, 60 minutes compound incubation, read-out: recombinant cellcular LRRK2 alphaScreen assay (pIC50) (converted).
T1 construct: A BacMam virus expressing full length recombinant LRRK2 was purchased from Invitrogen; host or cells: SH-SY5Y human neuroblastoma cells transduced with BacMam LRRK2 virus
Format: cell-based
Method: Recombinant Cellular LRRK2 AlphaScreen Assay
A BacMam virus expressing full length recombinant LRRK2 was purchased from Invitrogen and amplified by inoculation of SF-9 cells at MOI 0.3 for 4-5 days in Sf-900 III SFM medium supplemented with 3% fetal bovine serum. Infected cell cultures were then centrifuged at 2000 g for 20 minutes, viral supernatant titer determined by anti-gp64 plaque assay and stored at 4° C.
Affinity-purified anti-phospho LRRK2 Ser935 sheep polyclonal antibody (Dzamko et al., 2010, Biochem. J. 430: 405-413) was biotinylated by standard methods (PerkinElmer). Anti-LRRK2 rabbit polyclonal antibody was purchased from Novus Biologicals. AlphaScreen Protein A IgG Kit (including acceptor and donor beads) was purchased from Perkin Elmer.
SH-SY5Y cells were grown in DMEM/F12 medium with 10% dialysed fetal bovine serum and harvested by treatment with 0.5% trypsin-EDTA for 5 minutes at […] followed by centrifugation at 1000 rpm for 4 minutes. The cell pellet was resuspended in Opti-MEM reduced serum media (Invitrogen) at 200,000 cells/ml and mixed with the BacMam LRRK2 virus at MOI=50. 50 μl cell solutions were then dispensed to each well of a 384-well plate and incubated at 37° C., 5% CO2 for 24 hours.
Serial dilutions of test compounds were prepared in Opti-MEM reduced serum media (Invitrogen) and 5.6 ul transferred from compound plate to cell assay plate to achieve a top final assay concentration of 10 uM. DMSO was used in certain wells as controls. Cells were incubated at 37° C., 5% CO2 for 60 minutes. The medium was then removed and cells lysed by addition of 20 ul cell lysis buffer (Cell Signaling Technology) and incubation at 4° C. for 20 minutes. 10 ul of antibody/acceptor bead mix [(1/1000 biotinylated-pS935 LRRK2 antibody, 1/1000 total-LRRK2 antibody, 1/100 Acceptor beads in AlphaScreen detection buffer (25 mM Hepes (pH 7.4), 0.5% Triton X-100, 1 mg/ml Dextran 500 and 0.1% BSA)] was then added to each well and plates incubated for 2 hours at ambient temperature in the dark. 10 μl of donor beads solution (1/33.3 donor beads in AlphaScreen detection buffer) was then added to each well. Following incubation for a further 2 hours at ambient temperature in the dark, plates were read on an EnVision™ plate reader at emission 520-620 nm with excitation 680 nm. Dose response curve data was based on sigmoidal dose-response model.

T1 sequence (Q5S007 whole entry): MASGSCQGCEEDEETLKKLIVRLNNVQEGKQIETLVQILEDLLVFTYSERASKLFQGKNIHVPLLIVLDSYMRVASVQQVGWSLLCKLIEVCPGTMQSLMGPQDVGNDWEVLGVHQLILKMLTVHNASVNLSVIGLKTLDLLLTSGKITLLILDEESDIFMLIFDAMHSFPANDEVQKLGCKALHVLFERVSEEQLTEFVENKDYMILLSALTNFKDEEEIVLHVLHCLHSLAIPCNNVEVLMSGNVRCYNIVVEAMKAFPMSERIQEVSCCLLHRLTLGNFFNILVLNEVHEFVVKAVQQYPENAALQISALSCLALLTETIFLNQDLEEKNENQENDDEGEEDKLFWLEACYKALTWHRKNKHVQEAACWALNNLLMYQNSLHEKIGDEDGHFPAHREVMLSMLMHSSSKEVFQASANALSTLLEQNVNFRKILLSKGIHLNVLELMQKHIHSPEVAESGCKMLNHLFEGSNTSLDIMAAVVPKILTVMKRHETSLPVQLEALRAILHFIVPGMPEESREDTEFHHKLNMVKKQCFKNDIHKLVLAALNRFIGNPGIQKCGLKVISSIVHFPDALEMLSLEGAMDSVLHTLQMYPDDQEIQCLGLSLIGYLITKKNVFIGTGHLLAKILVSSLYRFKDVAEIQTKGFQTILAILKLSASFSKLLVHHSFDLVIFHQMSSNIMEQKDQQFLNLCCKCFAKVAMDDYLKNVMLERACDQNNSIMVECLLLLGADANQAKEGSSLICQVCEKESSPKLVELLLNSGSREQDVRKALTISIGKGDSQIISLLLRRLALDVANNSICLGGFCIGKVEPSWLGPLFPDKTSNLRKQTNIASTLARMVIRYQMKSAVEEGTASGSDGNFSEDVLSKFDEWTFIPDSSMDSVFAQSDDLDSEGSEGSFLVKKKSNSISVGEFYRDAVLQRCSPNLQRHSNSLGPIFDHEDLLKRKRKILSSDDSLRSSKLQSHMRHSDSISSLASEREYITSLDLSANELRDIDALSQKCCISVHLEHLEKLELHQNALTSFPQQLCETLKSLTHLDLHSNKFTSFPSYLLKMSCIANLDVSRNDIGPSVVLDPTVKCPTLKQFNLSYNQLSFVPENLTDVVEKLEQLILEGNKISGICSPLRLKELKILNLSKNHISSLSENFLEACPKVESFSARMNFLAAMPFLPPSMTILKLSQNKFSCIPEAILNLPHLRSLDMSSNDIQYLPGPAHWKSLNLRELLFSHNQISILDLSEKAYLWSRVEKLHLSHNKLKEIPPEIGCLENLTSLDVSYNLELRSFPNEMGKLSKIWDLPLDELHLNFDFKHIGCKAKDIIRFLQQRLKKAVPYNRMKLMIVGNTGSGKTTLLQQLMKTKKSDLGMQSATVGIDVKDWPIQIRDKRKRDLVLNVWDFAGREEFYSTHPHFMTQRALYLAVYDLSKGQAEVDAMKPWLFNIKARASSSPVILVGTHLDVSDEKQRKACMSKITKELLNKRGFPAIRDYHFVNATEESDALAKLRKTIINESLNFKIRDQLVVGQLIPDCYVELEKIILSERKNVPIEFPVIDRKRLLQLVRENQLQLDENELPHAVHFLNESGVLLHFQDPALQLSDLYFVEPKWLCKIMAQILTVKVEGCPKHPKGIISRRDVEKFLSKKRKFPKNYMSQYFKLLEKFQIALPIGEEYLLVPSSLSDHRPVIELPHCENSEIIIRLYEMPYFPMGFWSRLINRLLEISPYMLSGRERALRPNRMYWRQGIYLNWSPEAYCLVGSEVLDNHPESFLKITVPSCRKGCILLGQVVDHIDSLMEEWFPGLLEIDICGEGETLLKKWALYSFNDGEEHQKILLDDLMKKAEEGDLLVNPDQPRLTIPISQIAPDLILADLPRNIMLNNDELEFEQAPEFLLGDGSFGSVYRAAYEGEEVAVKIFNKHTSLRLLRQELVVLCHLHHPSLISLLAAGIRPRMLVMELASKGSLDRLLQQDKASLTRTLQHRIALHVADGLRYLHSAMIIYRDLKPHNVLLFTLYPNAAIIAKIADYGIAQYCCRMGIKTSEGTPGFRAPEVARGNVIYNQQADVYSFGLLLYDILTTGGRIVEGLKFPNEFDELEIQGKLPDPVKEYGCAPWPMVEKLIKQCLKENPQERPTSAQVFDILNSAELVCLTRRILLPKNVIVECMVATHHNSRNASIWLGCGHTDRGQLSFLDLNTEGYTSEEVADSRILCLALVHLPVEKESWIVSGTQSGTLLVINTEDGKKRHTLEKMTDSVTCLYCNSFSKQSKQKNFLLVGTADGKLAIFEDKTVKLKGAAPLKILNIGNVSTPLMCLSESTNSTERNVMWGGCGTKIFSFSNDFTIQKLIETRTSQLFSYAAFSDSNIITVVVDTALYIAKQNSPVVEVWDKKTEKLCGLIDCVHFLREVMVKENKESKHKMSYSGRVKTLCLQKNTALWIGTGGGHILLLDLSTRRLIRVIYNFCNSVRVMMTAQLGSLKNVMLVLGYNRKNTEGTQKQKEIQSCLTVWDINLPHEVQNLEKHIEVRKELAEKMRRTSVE

| Compound | IC50 [nM] |
| --- | --- |
| CCOc1nc(Nc2ccc(C(=O)N3CCOCC3)cc2OC)nc2[nH]cc(C)c12 [Example E32, (4-((4-ethoxy-5-methyl-7H-pyrrolo-[2,3-d]pyrimidin-2-yl)amino)-3-methoxyphenyl)(morpholino)methanone] | ≤ 100 |
| COc1cc(C(=O)N2CCOCC2)ccc1Nc1nc(OCC2CC2)c2cc[nH]c2n1 [Example E34, (4-((4-(cyclopropylmethoxy)-7H-pyrrolo-[2,3-d]pyrimidin-2-yl)amino)-3-methoxyphenyl)(morpholino)methanone] | ≤ 100 |
| CCOc1nc(Nc2ccc(C(=O)N3CCOCC3)cc2OC)nc2[nH]cc(C#N)c12 [Example E59, 4-ethoxy-2-((2-methoxy-4-(morpholine-4-carbonyl)phenyl)amino)-7H-pyrrolo[2,3-d]pyrimidine-5-carbonitrile] | ≤ 100 |

Other lines, results leading:

| IC50 [nM] | Compound |
| --- | --- |
| ≤ 100 | CCOc1nc(Nc2ccc(C(=O)N3CCN(C)CC3)cc2)nc2[nH]ccc12 [Example E15, (4-((4-ethoxy-7H-pyrrolo-[2,3-d]-pyrimidin-2-yl)amino)phenyl)(4-methylpiperazin-1-yl)methanone] |
| ≤ 100 | CCOc1nc(Nc2ccc(C(=O)N3CCOCC3)c(OC)c2)nc2[nH]ccc12 [Example E18, (4-((4-ethoxy-7H-pyrrolo-[2,3-d]-pyrimidin-2-yl)amino)-2-methoxyphenyl)(morpholino)methanone] |
| ≤ 100 | CCOc1nc(Nc2ccc(C(=O)N3CCOC[C@H]3C)cc2OC)nc2[nH]ccc12 [Example E30, (R)-(4-((4-ethoxy-7H-pyrrolo[2,3-d]pyrimidin-2-yl)amino)-3-methoxyphenyl)(3-methylmorpholino)methanone] |
| ≤ 100 | COc1cc(C(=O)N2CCN(C)CC2)ccc1Nc1nc(OCC2CC2)c2cc[nH]c2n1 [Example E33, (4-((4-(cyclopropylmethoxy)-7H-pyrrolo-[2,3-d]pyrimidin-2-yl)amino)-3-methoxyphenyl)(4-methylpiperazin-1-yl) methanone] |
